Source: patent publication US20250144067A1, “PERSONALIZED STARVATION THERAPY FOR CANCER” (Faeth Therapeutics, Inc., priority 2021, published 2025)
Structures can show the parent of a compound that is named as a salt.

How the values were obtained:
[1] = test system: NCI-H292 lung cancer cells; experiment: FDA drug screening, complete media vs cholesterol-free media without statin (TABLE 1); format: cell-based, human
[2] = test system: NCI-H292 lung cancer cells; experiment: FDA drug screening, complete media vs cholesterol-free media with simvastatin (TABLE 2); format: cell-based, human; conditions: for Cholesterol-free media + simvastatin (0.04 μM) / Complete Media: NCI-H292 cells
[3] = NCI-H292 cells, cholesterol-free media without statin, FDA drug library screen
[4] = NCI-H292 cells, complete media, FDA drug library screen
[5] = complete vs cholesterol-free media, >0 enhanced anti-cancer activity, about 0 neutral, <0 antagonist
[6] = cholesterol-free media with simvastatin 0.04 μM, cell growth value in FDA drug screen
[7] = complete media, cell growth value in FDA drug screen
[8] = complete media minus cholesterol-free media + simvastatin, >0 enhanced anti-cancer activity, about 0 neutral, <0 antagonist
[9] = Complete minus Cholesterol-free, […]
[10] = FDA drug library screen, cholesterol-free media with simvastatin 0.04 μM
[11] = FDA drug library screen, complete media
[12] = complete media minus cholesterol-free media + simvastatin, […]
[13] = complete media vs cholesterol-free media + simvastatin (0.04 μM), >0 enhanced anti-cancer activity, about 0 neutral, <0 antagonist
[14] = NCI-H292 cells, FDA drug library screen, cholesterol-free media without statin
[15] = NCI-H292 cells, FDA drug library screen, complete media
[16] = Complete minus Cholesterol-free, greater than 0 enhanced anti-cancer activity, about 0 neutral, below 0 antagonist
[17] = cholesterol-free media with simvastatin 0.04 μM, FDA drug library screen (TABLE 2)
[18] = complete media, FDA drug library screen (TABLE 2)
[19] = complete media minus cholesterol-free media + simvastatin (0.04 μM), >0 enhanced anti-cancer activity, about 0 neutral, <0 antagonist
[20] = Complete minus Cholesterol-free, >0 enhanced anti-cancer activity, about 0 neutral, <0 antagonist
[21] = drug in cholesterol-free media with simvastatin 0.04 μM
[22] = NCI-H292 cells, cholesterol-free media without statin
[23] = Complete minus Cholesterol-free, greater than 0 enhanced anti-cancer activity, about 0 neutral, below 0 antagonists
[24] = NCI-H292 cells in complete media

`Cc1[nH]c(/C=C2\C(=O)Nc3ccc(F)cc32)c(C)c1C(=O)NCCN1CCCC1` [Toceranib] showed a Cholesterol-free [1, 3] of 0.7492, a Complete [1, 4] of 1.361 and a Difference [1, 5] of 0.61. The “Cholesterol-free media + simvastatin (0.04 μM)” value [2, 6] was 0.9375, the “Complete Media” value [2, 7] was 1.022 and the Difference [2, 8] was 0.08.

`C=C[C@@H]1C[C@]1(NC(=O)[C@@H]1C[C@@H]2CN1C(=O)[C@H](C(C)(C)C)NC(=O)O[C@@H]1C[C@H]1CCCCCc1nc3ccc(OC)cc3nc1O2)C(=O)[N-]S(=O)(=O)C1CC1.[K+]` [Grazoprevir potassium salt] was tested, and the Difference [1, 9] was −0.06, the Cholesterol-free [1, 3] was 1.089 and the Complete [1, 4] was 1.03. For the same molecule, the “Cholesterol-free media + simvastatin (0.04 μM)” value [2, 10] was 1.46, the “Complete Media” value [2, 11] was 1.827 and the Difference [2, 12] was 0.37.

`CCc1nn(CCCN2CCN(c3cccc(Cl)c3)CC2)c(=O)n1CCOc1ccccc1` [Nefazodone (hydrochloride)] showed a Cholesterol-free [1, 3] of 0.8256, a Complete [1, 4] of 1.655 and a Difference [1, 5] of 0.83. The “Cholesterol-free media + simvastatin (0.04 μM)” value ([2]; FDA library drug in cholesterol-free media with simvastatin 0.04 μM) was 1.025, the “Complete Media” value ([2]; FDA library drug in complete media) was 0.2752 and the Difference [2, 13] was −0.75.

`C=C[C@@H]1C[C@]1(NC(=O)[C@@H]1C[C@@H]2CN1C(=O)[C@H](C(C)(C)C)NC(=O)O[C@@H]1C[C@H]1CCCCCc1nc3ccc(OC)cc3nc1O2)C(=O)NS(=O)(=O)C1CC1.O` [Grazoprevir] gave a Difference [1, 9] of −0.09, a Cholesterol-free [1, 14] of 1.057 and a Complete [1, 15] of 0.9626. For the same molecule, the “Cholesterol-free media + simvastatin (0.04 μM)” value ([2]; cholesterol-free media with simvastatin 0.04 μM, […]) was 0.9215, the “Complete Media” value ([2]; complete media, […]) was 0.9383 and the Difference [2, 12] was 0.02.

Lapatinib (ditosylate) gave a Difference [1, 16] of −0.15, a Cholesterol-free [1, 14] of 0.4354 and a Complete [1, 15] of 0.2847. The “Cholesterol-free media + simvastatin (0.04 μM)” value [2, 17] was 0.4889, the “Complete Media” value [2, 18] was 0.4758 and the Difference [2, 19] was −0.01.

`CCCN1CCCC[C@H]1C(=O)Nc1c(C)cccc1C` [Ropivacaine (hydrochloride)] showed a Difference [1, 20] of 0.07, a Cholesterol-free [1, 3] of 1.2 and a Complete [1, 4] of 1.265. The “Cholesterol-free media + simvastatin (0.04 μM)” value [2, 21] was 1.189, the “Complete Media” value ([2]; drug in complete media) was 0.9899 and the Difference [2, 13] was −0.20.

`CC12CC3CC(C)(C1)CC(N)(C3)C2` [Memantine (hydrochloride)] gave a Difference [1, 16] of −0.14, a Cholesterol-free [1, 14] of 0.8008 and a Complete [1, 15] of 0.656. The “Cholesterol-free media + simvastatin (0.04 μM)” value [2, 6] was 0.8007, the “Complete Media” value [2, 7] was 0.853 and the Difference [2, 8] was 0.05.

Work on `COC(=O)C1=C(C)NC(C)=C(C(=O)OC2CCCN(Cc3ccccc3)C2)C1c1cccc([N+](=O)[O-])c1` (stereo not shown) [Benidipine (hydrochloride)] yielded a Cholesterol-free [1, 22] of 0.9476, a Complete ([1]; NCI-H292 cells, complete media) of 0.5889 and a Difference ([1]; complete vs cholesterol-free media, greater than 0 enhanced anti-cancer activity, about 0 neutral, below 0 antagonists) of −0.36. The “Cholesterol-free media + simvastatin (0.04 μM)” value [2, 6] was 1.054 and the Difference [2, 8] was 0.11.

`CC(C(=O)O)c1ccc(CC2CCCC2=O)cc1` (stereo not shown) [Loxoprofen (sodium)] was tested, and the Difference [1, 20] was −0.22, the Cholesterol-free [1, 22] was 0.9775 and the Complete ([1]; NCI-H292 cells, complete media) was 0.7554. The “Cholesterol-free media + simvastatin (0.04 μM)” value [2, 10] was 1.087, the “Complete Media” value [2, 11] was 1.62 and the Difference [2, 8] was 0.53.

`CC(C)(C)NCC(O)c1ccccc1Cl` (stereo not shown) [Tulobuterol (hydrochloride)] was tested, and the Difference [1, 23] was −0.62, the Complete [1, 24] was 0.9988 and the “Cholesterol-free media + simvastatin (0.04 μM)” value [2, 10] was 1.041. For the same molecule, the “Complete Media” value [2, 11] was 1.605 and the Difference [2, 8] was 0.56.

For `CC(=O)OC[C@H]1O[C@@H]([S-])[C@H](OC(C)=O)[C@@H](OC(C)=O)[C@@H]1OC(C)=O.CCP(CC)CC.[Au+]` [Auranofin], the Difference [1, 9] was 0.01, the Cholesterol-free [1, 3] was −0.008527 and the Complete [1, 4] was 0.0049. For the same molecule, the “Cholesterol-free media + simvastatin (0.04 μM)” value [2, 17] was 0.01251, the “Complete Media” value [2, 18] was 0.0008313 and the Difference ([2]; complete media minus cholesterol-free media + simvastatin (0.04 μM), […]) was −0.01.

`O=C(O)C[C@H](O)C[C@H](O)/C=C/c1c(C2CC2)nc2ccccc2c1-c1ccc(F)cc1` [Pitavastatin (Calcium)] showed a Difference [1, 16] of −0.07, a Cholesterol-free [1, 14] of 0.4408 and a Complete [1, 15] of 0.3693. For the same molecule, the “Cholesterol-free media + simvastatin (0.04 μM)” value [2, 17] was 0.4883, the “Complete Media” value [2, 18] was 0.4437 and the Difference [2, 19] was −0.04.

In the case of `C[C@H]1[C@H](NC(=O)/C(=N\OC(C)(C)C(=O)O)c2csc(N)n2)C(=O)N1S(=O)(=O)O` [Aztreonam], the Difference [1, 20] is reported as −0.20, the Cholesterol-free [1, 22] is reported as 1.093 and the Complete ([1]; NCI-H292 cells, complete media) is reported as 0.892. The “Cholesterol-free media + simvastatin (0.04 μM)” value [2, 21] was 1.706, the “Complete Media” value ([2]; drug in complete media) was 1.446 and the Difference [2, 13] was −0.26.

`CS(=O)(=O)OC[C@H](O)[C@@H](O)COS(C)(=O)=O` [Treosulfan] was tested, and the Difference [1, 23] was −0.50, the Cholesterol-free ([1]; NCI-H292 cells in cholesterol-free media without statin) was 1.319 and the Complete [1, 24] was 0.8211. The “Cholesterol-free media + simvastatin (0.04 μM)” value [2, 21] was 1.216, the “Complete Media” value ([2]; drug in complete media) was 1.032 and the Difference [2, 13] was −0.18.
